# Test results published in patent publication US20250295655A1, “BRUTON'S KINASE INHIBITORS FOR THE TREATMENT OF A SUDDEN ALLERGIC REACTION” (ALK-ABELLÓ A/S, priority 2022, published 2025).
# How the values were obtained:
# basophils = experiment: Basophil activation (CD63 FACS) after allergen stimulation, BTKi added before or after; type: cell-based, human; details: BTKi 1000 or 5000 nM added before or 1, 5, 15, 30 min after allergen stimulation; vs water control
# Method: PBMCs were isolated from heparinized blood using Leucoseptubes (Greiner 227390) with Lymfoprep (Fresenius Kabi 1114547). Following isolation, the cells were washed and resuspended in RPMI 0.5% HSA (RPMI 1640 Gibco 72400-021, HSA Sigma A8763) to 0.25× original blood volume. 2 ng/ml of cytokine IL-3 (RD Peprotec cat nr 200-03) was added to the cells for Basophil priming with final 1 ng/ml. 50 μl of the cell suspension was used for each test, corresponding to 200 μl blood.
# The test can be carried out with any BTKi. In the present example, the following BTKis were tested: • Acalabrutinib (Cat A-7337, 100 mM in DMSO) was diluted in RPMI 0.5% HSA to a concentration of 10,000 and 2,000 nM. • Ibrutinib was diluted in RPMI 0.5% HSA to a concentration of 20.000, 5.000 and 1.000 nM. • Branebrutinib was diluted in RPMI 0.5% HSA to a concentration of 20.000 and 5.000 nM. • Remibrutinib was diluted in RPMI 0.5% HSA to a concentration of 20.000 and 5.000 nM. • Pirtobrutinib was diluted in RPMI 0.5% HSA to a concentration of 20.000 and 5.000 nM.
# Allergens: Grass pollen extract of the species Phleum pratense (ALK) was diluted in RPMI 0.5%-HSA to five concentrations of 100, 10, 1.0, 0.1 and 0.01 ng/ml. House dust mite allergen extract of the species Dermatophagoides pterinussinus (Derp ex) were made in concentrations of 0.1, 1 and 10 ug/ml by dilution in RPMI 0.5% HSA.
# The experiment was performed in 96 deep-well plates. 50 μl cell suspension (as described above) was added to each well. 50 μl activation stimuli and 100 μl BTK inhibitor or buffer were added at different time points (t=0 min, 5 min, 15 min or 30 min). Following addition of the components, the plate was incubated at 37° C. water bath for one hour. After incubation, the activation was stopped by adding 500 μl FACS FLOW (BD342003), 0.5% BSA (Fisher scientific BP9703-100)+10 mM EDTA (Invitrogen 15575-038). The plate was centrifuged for 5 min, at 600×G and 4° C. Supernatants were harvested and used for measurement of histamine by ELISA (supplier). Cell pellets were further washed and stained for FACS analysis with CD63 FITC (BD 557288) CD203c APC (e-bio) and CD123 PE (BD340545) using standard FACS staining procedure, 30 min on ice protected from light, followed by fixation with Cell Fix (BD) before analysis on Fortessa flowcytometer. Flowcytometer data was analyzed using FlowJo software and statistical data from here used for data analysis.
# ex-vivo blood basophils = details: leukemia patient treated with ibrutinib; cited from earlier work
# [1] = system: mast cell and basophil reactivity to food; details: ibrutinib daily for up to seven days before allergen exposure; cited from earlier work
# JAK2/STAT3 pathway = details: cited from earlier work
# basophil cells = details: pretreatment of basophil cells before allergen exposure; cited from earlier work
Compound,activation of cells after stimulation with an allergen (percent activation of basophils) (basophils),IgE-dependent histamine release in ex-vivo blood basophils (ex-vivo blood basophils),"mast cell and basophil reactivity to food (SPT, BAT) [1]",inhibition of JAK2/STAT3 pathway induced by Concavalin A (JAK2/STAT3 pathway),IgE-mediated histamine release (basophil cells)
"CC#CC(=O)N[C@H]1CCCN(c2c(F)cc(C(N)=O)c3[nH]c(C)c(C)c23)C1 [Branebrutinib, 4-[(3S)-3-(but-2-ynoylamino)piperidin-1-yl]-5-fluoro-2,3-dimethyl-1H-indole-7-carboxamide]",able to decrease the activation of cells,–,–,–,–
"C=CC(=O)N1CCC[C@@H](n2nc(-c3ccc(Oc4ccccc4)cc3)c3c(N)ncnc32)C1 [Ibrutinib, 1-[(3R)-3-[4-amino-3-(4-phenoxyphenyl)-1H-pyrazolo[3,4-d]pyrimidin-1-yl]-1-piperidinyl]-2-propen-1-one]",able to decrease the activation of cells,largely suppressed,can reduce mast cell and basophil reactivity,able to inhibit,inhibit IgE-mediated histamine release
"COc1ccc(F)cc1C(=O)NCc1ccc(-c2nn([C@@H](C)C(F)(F)F)c(N)c2C(N)=O)cc1 [Pirtobrutinib, 5-amino-3-[4-[[(5-fluoro-2-methoxybenzoyl)amino]methyl]phenyl]-1-[(2S)-1,1,1-trifluoropropan-2-yl]pyrazole-4-carboxamide]",able to decrease the activation of cells,–,–,–,–
"C=CC(=O)N(C)CCOc1c(N)ncnc1-c1cc(F)cc(NC(=O)c2ccc(C3CC3)cc2F)c1C [Remibrutinib, N-[3-[6-amino-5-[2-[methyl(prop-2-enoyl)amino]ethoxy]pyrimidin-4-yl]-5-fluoro-2-methylphenyl]-4-cyclopropyl-2-fluorobenzamide]",able to decrease the activation of cells,–,–,–,–
